Data published in paper PMC9542405, “Design, synthesis and antitumor activity of 5-trifluoromethylpyrimidine derivatives as EGFR inhibitors” (Journal of Enzyme Inhibition and Medicinal Chemistry, 2022).

Key:
[1] = tested on: A549 cells; test: In vitro activity against cancer cell lines (MTT), A549; assay type: cell-based; settings: Homo sapiens, mean ± SD of three replicates
Description: (§1) Co., Ltd. A549 (Human non-small-cell lung cancer cell line) cells, MCF-7 (Human breast cancer
(§2) cell line) cells, and PC-3 (Human prostate cancer cell line) cells. They were all purchased from the
(§3) Shanghai Cell Bank of the Chinese Academy of Sciences. NRK-52E (Normal rat kidney cell line)
(§4) cells donated by Guizhou Medicinal University were also used to evaluate the cytotoxicity.

[2] = tested on: PC-3 cells; test: In vitro activity against cancer cell lines (MTT), PC-3; assay type: cell-based; settings: Homo sapiens, mean ± SD of three replicates
Description: as §1, §2, §3, §4

[3] = molecular target: T1, EGFR^wt-TK (Homo sapiens, UniProt P00533); test: In vitro EGFR^wt-TK assay (ELISA kit); assay type: biochemical; settings: mean ± SD of three replicates; for inhibition at 1 µM: read-out: EGFR^wt-TK inhibition rate; for inhibition at 1 µM / EGFR^wt-TK inhibition rate: 1 μM
T1 construct: purchased
T1 sequence (P00533 25-1210): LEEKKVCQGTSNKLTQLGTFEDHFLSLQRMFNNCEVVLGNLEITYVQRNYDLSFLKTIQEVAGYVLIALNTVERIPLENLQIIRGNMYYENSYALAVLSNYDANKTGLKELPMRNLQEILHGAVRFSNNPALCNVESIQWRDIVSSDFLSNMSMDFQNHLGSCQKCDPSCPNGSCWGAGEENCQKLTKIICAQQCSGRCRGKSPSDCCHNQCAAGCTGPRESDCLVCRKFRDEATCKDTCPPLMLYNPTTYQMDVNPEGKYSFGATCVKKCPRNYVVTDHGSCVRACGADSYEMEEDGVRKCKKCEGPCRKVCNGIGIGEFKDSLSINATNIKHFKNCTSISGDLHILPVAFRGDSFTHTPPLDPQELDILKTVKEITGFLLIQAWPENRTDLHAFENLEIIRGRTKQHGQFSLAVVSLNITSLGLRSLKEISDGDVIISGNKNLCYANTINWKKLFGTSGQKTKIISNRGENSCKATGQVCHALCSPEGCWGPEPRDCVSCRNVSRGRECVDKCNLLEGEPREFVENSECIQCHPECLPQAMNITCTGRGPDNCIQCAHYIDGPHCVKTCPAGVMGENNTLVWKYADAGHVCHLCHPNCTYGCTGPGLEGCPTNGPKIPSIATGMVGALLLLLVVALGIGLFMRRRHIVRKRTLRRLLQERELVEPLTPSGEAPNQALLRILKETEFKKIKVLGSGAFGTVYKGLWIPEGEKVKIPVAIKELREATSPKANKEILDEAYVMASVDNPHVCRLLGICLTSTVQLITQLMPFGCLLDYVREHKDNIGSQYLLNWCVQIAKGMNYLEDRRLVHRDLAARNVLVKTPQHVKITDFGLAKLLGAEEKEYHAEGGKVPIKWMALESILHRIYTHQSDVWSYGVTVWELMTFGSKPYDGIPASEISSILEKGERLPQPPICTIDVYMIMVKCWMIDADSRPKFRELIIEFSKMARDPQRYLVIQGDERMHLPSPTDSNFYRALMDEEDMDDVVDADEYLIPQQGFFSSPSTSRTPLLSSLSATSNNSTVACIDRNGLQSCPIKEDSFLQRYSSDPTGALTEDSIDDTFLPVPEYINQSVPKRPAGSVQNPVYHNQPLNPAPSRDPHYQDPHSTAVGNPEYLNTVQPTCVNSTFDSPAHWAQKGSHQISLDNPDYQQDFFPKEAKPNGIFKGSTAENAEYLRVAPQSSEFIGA
Protocol: The IC50 values of target compounds against EGFR^wt were calculated from the dose − response curve under Graph-Pad Prism 9, which was tested at the different concentrations.

[4] = tested on: MCF-7 cells; test: In vitro activity against cancer cell lines (MTT), MCF-7; assay type: cell-based; settings: Homo sapiens, MCF7, mean ± SD of three replicates
Description: as §1, §2, §3, §4

Row | Structure (SMILES) | melting point [°C] | IC50 [1] [µM] | IC50 [2] [µM] | inhibition at 1 µM [3] [%] | IC50 [4] [µM] | EGFR^wt-TK inhibition rate [3] [%] | IC50 [3] [µM]
1 | CNC(=O)c1sccc1Nc1nc(Nc2ccc(NC(=O)c3ccccc3)cc2)ncc1C(F)(F)F [Compound 9a, 3-[2-(4-Benzoylamino-phenylamino)-5-trifluoromethyl-pyrimidin-4-ylamino]-thiophene-2-carboxylic acid methylamide] | 212.5 to 213.8 | 8.51 ± 0.94 | 14.6 ± 0.83 | 32.5 ± 2.56 | 11.9 ± 1.36 |  | 
2 | CNC(=O)c1sccc1Nc1nc(Nc2ccc(NC(=O)c3ccccc3F)cc2)ncc1C(F)(F)F [Compound 9b, 3-{2-[4-(2-Fluoro-benzoylamino)-phenylamino]-5-trifluoromethyl-pyrimidin-4-ylamino}-thiophene-2-carboxylic acid methylamide] | 213.3 to 215.4 | 4.03 ± 0.47 | 11.2 ± 1.68 | 46.3 ± 1.85 | 6.05 ± 0.82 |  | 
3 | CNC(=O)c1sccc1Nc1nc(Nc2ccc(NC(=O)c3cccc(F)c3)cc2)ncc1C(F)(F)F [Compound 9c, 3-{2-[4–(3-Fluoro-benzoylamino)-phenylamino]-5-trifluoromethyl-pyrimidin-4-ylamino}-thiophene-2-carboxylic acid methylamide] | 239.8 to 241.5 | 2.23 ± 0.42 | 16.4 ± 2.27 | > 50 | 5.32 ± 0.74 | 55.48 ± 1.71 | 0.31 ± 0.095
4 | CNC(=O)c1sccc1Nc1nc(Nc2ccc(NC(=O)c3ccc(F)cc3)cc2)ncc1C(F)(F)F [Compound 9d, 3-{2-[4-(4-Fluoro-benzoylamino)-phenylamino]-5-trifluoromethyl-pyrimidin-4-ylamino}-thiophene-2-carboxylic acid methylamide] | 217.2 to 219.3 | 3.75 ± 0.55 | 16.7 ± 1.53 | 49.38 ± 0.47 |  |  | 
5 | CNC(=O)c1sccc1Nc1nc(Nc2ccc(NC(=O)c3ccc(F)c(F)c3)cc2)ncc1C(F)(F)F [Compound 9e, 3-{2-[4-(3,4-Difluoro-benzoylamino)-phenylamino]-5-trifluoromethyl-pyrimidin-4-ylamino}-thiophene-2-carboxylic acid methylamide] | 218.9 to 219.7 | 2.77 ± 0.59 | 17 ± 1.82 | > 50 |  | 54.49 ± 1.44 | 0.44 ± 0.11
6 | CNC(=O)c1sccc1Nc1nc(Nc2ccc(NC(=O)c3cccc(C(F)(F)F)c3)cc2)ncc1C(F)(F)F [Compound 9f, 3-{5-Trifluoromethyl-2-[4-(3-trifluoromethyl-benzoylamino)-phenylamino]-pyrimidin-4-ylamino}-thiophene-2-carboxylic acid methylamide] | 232 to 233.5 | 5.13 ± 0.46 | 12.2 ± 1.54 | 41.1 ± 1.79 | 6.54 ± 0.53 |  | 
7 | CNC(=O)c1sccc1Nc1nc(Nc2ccc(NC(=O)c3ccc(OC)cc3)cc2)ncc1C(F)(F)F [Compound 9g, 3-{2-[4-(4-Methoxy-benzoylamino)-phenylamino]-5-trifluoromethyl-pyrimidin-4-ylamino}-thiophene-2-carboxylic acid methylamide] | 229.4 to 230.6 | 7.63 ± 0.62 | > 20 | 28.8 ± 0.62 | 10.1 ± 1.18 |  | 
8 | CNC(=O)c1sccc1Nc1nc(Nc2ccc(NC(=O)c3cc(OC)c(OC)c(OC)c3)cc2)ncc1C(F)(F)F [Compound 9h, 3-{5-Trifluoromethyl-2-[4-(3,4,5-trimethoxy-benzoylamino)-phenylamino]-pyrimidin-4-ylamino}-thiophene-2-carboxylic acid methylamide] | 211.9 to 213.1 | 1.66 ± 0.54 | 11.3 ± 1.42 | > 50 | 3.37 ± 0.62 | 56.43 ± 0.51 | 0.35 ± 0.062
9 | CCC(=O)Nc1ccc(Nc2ncc(C(F)(F)F)c(Nc3ccsc3C(=O)NC)n2)cc1 [Compound 9i, 3-[2-(4-Propionylamino-phenylamino)-5-trifluoromethyl-pyrimidin-4-ylamino]-thiophene-2-carboxylic acid methylamide] |  | 17.8 ± 1.67 | > 20 | 11.9 ± 0.35 | > 20 |  | 
10 | CNC(=O)c1sccc1Nc1nc(Nc2ccc(NC(=O)C(C)C)cc2)ncc1C(F)(F)F [Compound 9j, 3-[2-(4-Isobutyrylamino-phenylamino)-5-trifluoromethyl-pyrimidin-4-ylamino]-thiophene-2-carboxylic acid methylamide] |  | > 20 | > 20 | 8.76 ± 0.68 | > 20 |  | 
11 | C#CC(=O)Nc1ccc(Nc2ncc(C(F)(F)F)c(Nc3ccsc3C(=O)NC)n2)cc1 [Compound 9k, 3-[2-(4-Propynoylamino-phenylamino)-5-trifluoromethyl-pyrimidin-4-ylamino]-thiophene-2-carboxylic acid methylamide] |  | 1.82 ± 0.49 | 15.4 ± 2.38 | > 50 | 4.91 ± 0.83 | 55.73 ± 2.14 | 0.48 ± 0.073
12 | CNC(=O)c1sccc1Nc1nc(Nc2ccc(NC(=O)C3CC3)cc2)ncc1C(F)(F)F [Compound 9l, 3-{2-[4-(Cyclopropanecarbonyl-amino)-phenylamino]-5-trifluoromethyl-pyrimidin-4-ylamino}-thiophene-2-carboxylic acid methylamide] | > 250 | 16.5 ± 2.31 | > 20 | 12.6 ± 1.07 | > 20 |  | 
13 | CNC(=O)c1sccc1Nc1nc(Nc2ccc(NC(=O)C3CCC3)cc2)ncc1C(F)(F)F [Compound 9m, 3-{2-[4-(Cyclobutanecarbonyl-amino)-phenylamino]-5-trifluoromethyl-pyrimidin-4-ylamino}-thiophene-2-carboxylic acid methylamide] | 236.1 to 236.4 | 15.1 ± 2.29 | > 20 | 13.3 ± 0.83 | > 20 |  | 
14 | CNC(=O)c1sccc1Nc1nc(Nc2ccc(NC(=O)C3CCCC3)cc2)ncc1C(F)(F)F [Compound 9n, 3-{2-[4-(Cyclopentanecarbonyl-amino)-phenylamino]-5-trifluoromethyl-pyrimidin-4-ylamino}-thiophene-2-carboxylic acid methylamide] | 246.4 to 247.2 | 13.8 ± 1.57 | > 20 | 18.9 ± 1.14 | > 20 |  | 
15 | CNC(=O)c1sccc1Nc1nc(Nc2ccc(NC(=O)C3CCCCC3)cc2)ncc1C(F)(F)F [Compound 9o, 3-{2-[4-(Cyclohexanecarbonyl-amino)-phenylamino]-5-trifluoromethyl-pyrimidin-4-ylamino}-thiophene-2-carboxylic acid methylamide] | 246.7 to 248.2 | 8.49 ± 0.63 | > 20 | 26.6 ± 1.38 | 13.5 ± 1.24 |  | 
16 | CNC(=O)c1sccc1Nc1nc(Nc2ccc(NC(=O)C3CCOCC3)cc2)ncc1C(F)(F)F [Compound 9p, Tetrahydro-pyran-4-carboxylicacid{4-[4-(2-methylcarbamoyl-thiophen-3-ylamino)-5-trifluoromethyl-pyrimidin-2-ylamino]-phenyl}-amide] | 232.3 to 233.8 | 7.28 ± 0.47 | > 20 | 36.46 ± 0.23 | 10 ± 0.96 |  | 
17 | CNC(=O)c1sccc1Nc1nc(Nc2ccc(NC(=O)C3CCC(=O)CC3)cc2)ncc1C(F)(F)F [Compound 9q, N-Methyl-3-((2-((4-(4-oxocyclohexane-1-carboxamido)phenyl)amino)-5-(trifluoromethyl)pyrimidin-4-yl)amino)thiophene-2-carboxamide] |  | 7.65 ± 0.39 | > 20 | 35.5 ± 0.89 | 10.6 ± 1.58 |  | 
18 | CNC(=O)c1sccc1Nc1nc(Nc2ccc(NC(=O)C3CCN(C)CC3)cc2)ncc1C(F)(F)F [Compound 9r, 1-Methyl-piperidine-4-carboxylicacid{4-[4-(2-methylcarbamoyl-thiophen-3-ylamino)-5-trifluoromethyl-pyrimidin-2-ylamino]-phenyl}-amide] | 210.8 to 211.6 | 8.41 ± 0.92 | > 20 | 33 ± 0.57 | 11.2 ± 1.47 |  | 
19 | CNC(=O)c1sccc1Nc1nc(Nc2ccc(NC(=O)C3CCN(C(C)=O)CC3)cc2)ncc1C(F)(F)F [Compound 9s, 1-Acetyl-piperidine-4-carboxylicacid{4-[4-(2-methylcarbamoyl-thiophen-3-ylamino)-5-trifluoromethyl-pyrimidin-2-ylamino]-phenyl}-amide] | > 250 | 6.92 ± 0.38 | > 20 | 37.1 ± 0.46 | 9.75 ± 0.85 |  | 
20 | CNC(=O)c1sccc1Nc1nc(Nc2ccc(NC(=O)C=Cc3ccccc3)cc2)ncc1C(F)(F)F [Compound 9t, 3-{2-[4-(3-Phenyl-acryloylamino)-phenylamino]-5-trifluoromethyl-pyrimidin-4-ylamino}-thiophene-2-carboxylic acid methylamide] | 212.5 to 213.8 | 3.67 ± 0.61 | > 20 | > 50 | 6.45 ± 0.53 | 53.56 ± 1.69 | 0.26 ± 0.071
21 | CNC(=O)c1sccc1Nc1nc(Nc2ccc(NC(=O)C=Cc3ccc(F)cc3)cc2)ncc1C(F)(F)F [Compound 9v, 3–(2-{4-[3-(4-Fluoro-phenyl)-acryloylamino]-phenylamino}-5-trifluoromethyl-pyrimidin-4-ylamino)-thiophene-2-carboxylic acid methylamide] | 248.8 to 249.1 | 0.46 ± 0.27 | 7.88 ± 1.34 | > 50 | 4.13 ± 0.21 | 58.14 ± 1.76 | 0.14 ± 0.053
